Article PMC8236048, “Pharmaceutical design of a delivery system for the bacteriocin lacticin 3147” (Drug Delivery and Translational Research, 2021)

Experiments:
[1] = system: L. monocytogenes ATCC 1916; assay: Growth curve bioactivity assay versus L. monocytogenes ATCC 1916; type: cell-based; conditions: 0.5 h, 37 °C, 300 rpm, 0.2 µm PES filtered, growth curve 24 h
Experimental: An overnight culture of L. monocytogenes ATCC1916 was grown in TSB media supplemented with 6 g/L yeast at 37 °C. Freeze-dried Ltnα and Ltnβ were resuspended individually in 70% IPA to make a 1-mg/ml solution and filtered through a 0.2-µm filter (polyethersulfone) PES filter. They were then diluted in sterile PBS to a final peptide concentration of 50 µg/ml. Peptide solutions were added in triplicate to a 96-well plate with sufficient PBS to give a volume of 50 µl. 150 µl of diluted bacterial cell culture (optical density (OD) of 0.1 at 595 nm) was then added to the wells. Final peptide concentrations of 150 nM (0.50 µg/ml Ltnα, 0.43 µg/ml Ltnβ), 300 nM (0.99 µg/ml Ltnα, 0.85 µg/ml Ltnβ), and 400 nM (1.31 µg/ml Ltnα, 1.14 µg/ml Ltnβ) were obtained when the wells were filled to 200 µl. Blanks were set up in triplicate with media only and PBS only. The three control wells were also set up with bacterial culture and PBS only. The 96-well plate was incubated in a Biotek ELx808 Ultra microplate reader at 37 °C for 24 h. Readings were taken at a wavelength of 590 nm every 30 min for 24 h with the plate shaken mildly before each reading.
An excess quantity of freeze-dried Ltnα and Ltnβ were resuspended individually in PBS buffer/FaSSGF/FaSSIF. The samples were then incubated for 0.5 h at 37 ± 0.5 °C with stirring at 300 rpm. At the end of the incubation period, samples were filtered through a 0.2-µm PES syringe filter and employed in the in vitro activity assay. Briefly, 25 µl of each of the filtered peptide solutions were added in triplicate to the same wells of a 96-well plate. Three control wells were set up containing 50 µl of PBS alone. 150 μl of L. monocytogenes ATCC 1916 with an OD of 0.1 at 595 nm was added to each well. The 96-well plate was then incubated in a Biotek ELx808 Ultra microplate reader at 37 °C for 24 h. The readings were taken as previously described.

[2] = system: L. lactis HP; conditions: at a neutral pH; cited from earlier work
From the text: Lacticin 3147 is a two-peptide (Ltnα and Ltnβ) bacteriocin produced by Lactococcus lactis DPC6577 (Fig. 1). It is classified as a lantibiotic due to the presence of lanthionine rings in its structure. The two peptides act synergistically, targeting lipid II, a precursor of peptidoglycan synthesis in Gram-positive bacteria, leading to inhibition of cell wall synthesis, pore formation, and eventual cell death. […] These masses correspond with those previously reported in the literature. Lacticin 3147′s activity against various strains including L. monocytogenes and C. difficile has been previously reported in the literature; however, for the purpose of this study, L. monocytogenes was used to establish the impact of solution composition, pH, and process ...

[3] = system: C. difficile; conditions: antimicrobial-resistant bacteria; cited from earlier work
From the text: (§1) Approximately 223,900 C. difficile infections and 12,800 resulting deaths were reported in the USA in 2017 [17]. Treatment failures and recurrences of infection after the use of antibiotics are increasingly common, with a 2–38% failure rate for vancomycin and 8–50% for metronidazole. A more virulent strain of C. d ...

[4] = system: L. monocytogenes; conditions: cited from earlier work
From the text: as §1

[5] = system: eukaryotic cells; conditions: cited from earlier work
From the text: as §1

[6] = system: methicillin-resistant S. aureus (MRSA); conditions: cited from earlier work
From the text: as §1

[7] = cited from earlier work
From the text: (§2) Gardiner et al., however, reported that α-chymotrypsin alone degrades lacticin 3147 [21]. Lacticin 3147 is heat stable, pH stable, and active at a neutral pH [9]. However, quantitative data on the amount of lacticin 3147 dissolved, i.e. its solution concentration, is rarely reported. In fact, only a handful of quantitative solubility studies on bacteriocins can be found in the literature [[ ...

[8] = target: T1, pepsin (Sus scrofa, UniProt P00791); conditions: cited from earlier work
T1 construct: purchased Sigma-Aldrich Ireland Ltd
T1 sequence (P00791 60-385): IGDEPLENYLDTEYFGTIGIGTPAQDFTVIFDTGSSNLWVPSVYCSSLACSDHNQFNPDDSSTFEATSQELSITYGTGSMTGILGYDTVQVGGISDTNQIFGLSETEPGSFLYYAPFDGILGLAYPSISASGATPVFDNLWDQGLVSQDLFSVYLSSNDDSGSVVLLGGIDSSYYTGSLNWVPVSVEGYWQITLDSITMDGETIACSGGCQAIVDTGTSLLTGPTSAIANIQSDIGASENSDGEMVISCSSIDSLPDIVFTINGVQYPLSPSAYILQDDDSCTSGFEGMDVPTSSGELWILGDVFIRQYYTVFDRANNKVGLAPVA
From the text: as §2

[9] = system: trypsin; conditions: cited from earlier work
From the text: as §2

lacticin 3147
activity against L. monocytogenes ATCC 1916 after addition in excess to FaSSGF and filtration ([1]; FaSSGF (pH 1.6)): active | activity against L. monocytogenes ATCC 1916 after addition in excess to FaSSIF and filtration ([1]; FaSSIF (pH 6.5)): active | activity against L. monocytogenes ATCC 1916 after addition in excess to PBS and filtration ([1]; PBS (pH 7.4)): active | activity against L. lactis subsp. cremoris HP [2]: active | activity against C. difficile [3]: active at nanomolar concentrations | activity against L. monocytogenes [4]: active at nanomolar concentrations | toxicity to eukaryotic cells [5]: non-toxic | activity against methicillin-resistant S. aureus (MRSA) [6]: active at nanomolar concentrations | heat stability [7]: heat stable | pH stability [7]: pH stable | effect of pepsin on activity [8]: unaffected | effect of trypsin [9]: degraded and inactivated
